From patent publication US20050107430A1, “Antimicrobial and antiviral compounds” (priority 2003, published 2005)
≈ marks a conversion by molar mass, not a printed value. Where “and” joins values, the source holds several entries; their conditions need not be identical. Equal entries are not always repeated. Entries after “also recorded” stand apart in the source; their conditions may differ. Marks after values point to notes of the source that are not given here.

Key:
Mycobacterium fortutium = assay: MIC, Mycobacterium fortutium; assay type: cell-based; details: for MIC, Mycobacterium fortutium: Table 3
[1] = tested on: VRE (Vancomycin resistant Enterococci); assay: NCCLS MIC/MBC microdilution, VRE; details: for MIC, VRE enterococcus (E. faecalis): 24 h and 48 h same results; for MIC: plate D4, VRE patient isolate
Description: (§2) Standard NCCLS (e.g., National Committee for Clinical Laboratory Standards) methods for determining MIC (e.g., minimum inhibitory concentration) and MBC (e.g., minimum bactericidal concentration) were used. 96 well micro-well plates were placed in a humid chamber and frozen at −70° C. [BBL Mueller Hinton Broth]. Drugs (e.g., antimicrobial compounds of the present invention) were added to a series of wells through 2 fold serial dilutions. 100 μl of a 2×10^−3 M solution of the respective Tx compounds was added to the first well in a series. 100 μl of the inoculum (e.g., microorganism) was added to the well. […] For example, the concentration in well 8 would be less than the concentration of the same drug in well 7. Inoculum (e.g., microorganism) that was added to the wells was prepared from 24 hour growth of an isolate on 5% sheep blood/Columbia agar plates. 5 to 10 representative colonies were then picked from the plates and added to saline and adjusted to 0.5 McFarland turbidity. Next the sample was diluted 1:100 in saline, such that 100 μl of the diluted sample contained approximately 1×10^5 microbes. 100 μl of the diluted sample was added to each well in a series of drug concentrations. Once the cells were added to the wells, the well plates were incubated at 35° C. without CO2 for 48 hrs and at this time the minimum bactericidal concentration was determined.
(§3) The MIC of Tx-118, Tx-147, and Tx-197 for certain Staphylococcus aureus (MRSA), Pseudomonas aeruginosa, Stenotrophomonas maltophilia, and VRE Enterococcus faecalis was determined using standard NCCLS methods. The first well in each series of decreasing drug concentrations contained 1×10^−4 M of a drug. The drug was diluted by serial two fold dilutions through all 12 wells in a series. There was a final DMSO concentration of 2% in the first well and 1% in the second well, etc. Tests with Tx-118 and Tx-197 were performed in triplicate, and tests with Tx-147 were performed in duplicate.

[2] = tested on: MRSA (oxacillin/methicillin resistant S. aureus); assay: NCCLS MIC/MBC microdilution, MRSA; details: for MIC, MRSA (methicillin resistant): Table 3, 24 h and 48 h same results
Description: as §2, §3

P. aeruginosa = assay: NCCLS MIC/MBC microdilution, P. aeruginosa; parameters: MIC: key to the marks not given beside the values; details: for MIC, P. aeruginosa: Table 3, P. aeroginosa is L13 from Table 2
[3] = tested on: Stenotrophomonas maltophilia; assay: NCCLS MIC/MBC microdilution, S. maltophilia; details: for MIC, Stenotrophomonas maltophilia: 24 h and 48 h same results
Description: as §2, §3

[4] = tested on: chloroquin (CQ) resistant strain of Plasmodium falciparum (Pf); assay: In vitro efficacy against chloroquin resistant Plasmodium falciparum; assay type: cell-based; details: for IC50: CQ resistant P. falciparum, in vitro, triplicate
Description: Tx-5 and Tx-84 were tested for in vitro efficacy against a chloroquin (CQ) resistant strain of Plasmodium falciparum (Pf). The tests were performed in triplicate at a wide variety of concentrations and evaluated for effect compared with CQ.

M. avium intracellularie = assay: MIC, M. avium intracellularie; assay type: cell-based, Mycobacterium avium intracellulare; details: Table 3
[5] = tested on: Mycobacterium tuberculosis; details: Table 3
various microorganisms = assay: Antimicrobial activity tests, various microorganisms; details: for growth in wells (activity): Example 1 microbes
E. coli ATCC 25922 = assay: NCCLS MIC/MBC microdilution, E. coli; assay type: cell-based; details: plate EC
Source text: (§1) [BBL Mueller Hinton Broth].

Enterococcus faecium = assay: NCCLS MIC/MBC microdilution, Enterococcus (vancomycin sensitive); assay type: cell-based; details: for MBC: read at 48 hr
Source text: as §1

S. aureus = assay: NCCLS MIC/MBC microdilution, S. aureus patient isolates; assay type: cell-based, Staphylococcus aureus; details: for MBC: read at 48 hr
Source text: as §1

human fibroblasts = assay: Toxicity study with human fibroblasts; assay type: cell-based
BDF1′ mice = details: 30 mg/kg ip
[6] = tested on: Vancomycin resistant S. aureus ATCC700699 and 700788 (VRSA); assay: NCCLS MIC/MBC microdilution, vancomycin resistant S. aureus; assay type: cell-based, Staphylococcus aureus; details: for MBC: read at 48 hr
Source text: as §1

[7] = plate E348, Enterococcus faecium patient isolate
[8] = plate E502, Enterococcus faecium ATCC 502806
[9] = plate E523, Enterococcus facium patient isolate
[10] = plate S332, S aureus patient isolate
[11] = plate S520, S aureus patient isolate penicillin resistant
[12] = plate K12, MRSA patient isolate
[13] = plate 37, P. aeruginosa sensitive isolate
[14] = plate ATCC, P. aeruginosa ATCC 27853
[15] = plate L13, P. aeruginosaR (multi-resistant)
[16] = plate C3, S. maltophilia patient isolate
[17] = plate I10, S. maltophilia patient isolate
[18] = plate J11, S. maltophilia patient isolate
[19] = Table 3, 24 h and 48 h same results
[20] = plate 699, VancoR S. aureus ATCC700699
[21] = plate 788, VancoR S. aureus ATCC 700788
[22] = Example 2, first well 1×10^−4 M

O=C1[C@@H](O)[C@H](c2ccccc2)N1c1cc2c3ccccc3ccc2c2ccccc12 (relative stereo) [Tx-197, Trans-1-N-(6′-chrysenyl)-3-hydroxy-4-phenyl-2-azetidinone]
MIC, Mycobacterium fortutium (Mycobacterium fortutium): No activity
MIC, VRE enterococcus (E. faecalis) ([1]; Table 3): No activity
MIC, MRSA (methicillin resistant) [2]: No activity
MIC, P. aeruginosa (P. aeruginosa): No activity
MIC, Stenotrophomonas maltophilia ([3]; Table 3): No activity

CCN(CC)CCCC(C)Nc1ccnc2cc(Cl)ccc12 (stereo not drawn) [CQ, chloroquin, reference compound]
IC50 [4]: 0.606 µM

CN1CCN(C(=O)CCC(=O)Nc2cc3c4ccccc4ccc3c3ccccc23)CC1 [Tx-1, N-(6′-chrysenyl)-4-(4′N methyl-piperazinyl)-butane-1,4-dicarboxiamide]
MIC, M. avium intracellularie (M. avium intracellularie): 46 mg/L (≈ 108 µM)
MIC, Mycobacterium tuberculosis [5]: 2.9 mg/L (≈ 6.81 µM)

CN1CCN(C(=O)CCC(=O)Nc2ccc3c(ccc4c5ccccc5ccc34)c2)CC1 [Tx-2, N-(2′-chrysenyl)-4-(4′N-methyl-piperazinyl)-butane-1,4-dicarboxiamide]
MIC, M. avium intracellularie (M. avium intracellularie): 15.6 mg/L (≈ 36.7 µM)
MIC, Mycobacterium tuberculosis [5]: 1 mg/L (≈ 2.35 µM)

O=C(CCC(=O)N1CCCCC1)Nc1cc2c3ccccc3ccc2c2ccccc12 [Tx-3, N-(6′-chrysenyl)-4-(1′-piperidinyl)-butane-1-4-dicarboxiamide]
MIC, M. avium intracellularie (M. avium intracellularie): .98 mg/L (≈ 2.39 µM)
MIC, Mycobacterium tuberculosis [5]: .125 mg/L (≈ 0.304 µM)

O=C(CCC(=O)N1CCCCC1)Nc1ccc2c(ccc3c4ccccc4ccc23)c1 [Tx-4, N-(2′-chrysenyl)-4-(1′-piperidinyl)-butane-1,4-dicarboxiamide]
MIC, M. avium intracellularie (M. avium intracellularie): .82 mg/L (≈ 2 µM)
MIC, Mycobacterium tuberculosis [5]: .1 mg/L (≈ 0.244 µM)

CN1CCN(C(=O)CCC(=O)Nc2cc3c4ccccc4c(Br)cc3c3ccccc23)CC1 [Tx-9, N-(12′-bromo, 6′-chrysenyl)-4-(4′N methyl-piperazinyl)-butane-1,4-dicarboxiamide]
growth in wells (activity) (various microorganisms): +3 growth (e.g., no activity)

CN1CCN(C(=O)CCC(=O)Nc2ccc3c(c2)c(Br)cc2c4ccccc4ccc32)CC1 [Tx-10, N-(12′-bromo, 2′-chrysenyl)-4-(4′N methyl-piperazinyl)-butane-1,4-dicarboxiamide]
growth in wells (activity) (various microorganisms): +3 growth (e.g., no activity)

O=C(CCC(=O)N1CCCCC1)Nc1cc2c3ccccc3c(Br)cc2c2ccccc12 [Tx-11, N-(12′-bromo, 6-chrysenyl)-4-(1′-piperidinyl)-butane-1,4-dicarboxiamide]
growth in wells (activity) (various microorganisms): +3 growth (e.g., no activity)

O=C(CCC(=O)N1CCCCC1)Nc1ccc2c(c1)c(Br)cc1c3ccccc3ccc21 [Tx-12, N-(12′-bromo, 2′-chrysenyl)-4-(1′-piperidinyl)-butane-1,4-dicarboxiamide]
growth in wells (activity) (various microorganisms): +3 growth (e.g., no activity)

CN1CCN(C(=O)CCC(=O)Nc2cc3c(c4ccccc24)-c2ccc4ccccc4c2C3)CC1 [Tx-37, N-[11′-(13′H-Dibenzo[a,g]-fluorenyl)]-4-(4′N methyl-piperazinyl)-butane-1,4-dicarboxiamide]
MIC (E. coli ATCC 25922): +++
MIC (Enterococcus faecium; [7]): +++
MIC (Enterococcus faecium; [8]): +++
MIC (Enterococcus faecium; [9]): +++
MIC (S. aureus; [10]): +++
MIC (S. aureus; [11]): +++
Toxicity/human fibroblasts (IC50) (human fibroblasts): 5 µg/mL
animal studies (ip), mortality (BDF1′ mice): 30 mg/kg (no mortality)
MIC, VRE enterococcus (E. faecalis) ([1]; Table 3): 58 mg/L (≈ 125 µM)
MIC [1]: 58 mg/L (≈ 125 µM)
MIC, MRSA (methicillin resistant) [2]: 1.8 to 7 mg/L
MIC ([2]; plate A1, MRSA patient isolate): 7.2 mg/L (≈ 15.5 µM)
MIC ([2]; plate B2, MRSA patient isolate): 3.6 mg/L (≈ 7.77 µM)
MIC ([2]; plate E5, MRSA patient isolate): 3.6 mg/L (≈ 7.77 µM)
MIC ([2]; plate F6, MRSA patient isolate): 1.8 mg/L (≈ 3.88 µM)
MIC ([2]; plate G7, MRSA patient isolate): 3.6 mg/L (≈ 7.77 µM)
MIC ([2]; plate H9, MRSA patient isolate): 7.2 mg/L (≈ 15.5 µM)
MIC [2, 12]: 7.2 mg/L (≈ 15.5 µM)
MIC, P. aeruginosa (P. aeruginosa): No activity
MIC (P. aeruginosa; [13]): +++
MIC (P. aeruginosa; [14]): +++
MIC (P. aeruginosa; [15]): +++
MIC, Stenotrophomonas maltophilia ([3]; Table 3): No activity
MIC [3, 16]: +++
MIC [3, 17]: +++
MIC [3, 18]: +++

O=C(CCC(=O)N1CCCCC1)Nc1cc2c(c3ccccc13)-c1ccc3ccccc3c1C2 [Tx-38]
MIC (E. coli ATCC 25922): +++
MIC (Enterococcus faecium; [7]): +++
MIC (Enterococcus faecium; [8]): +++
MIC (Enterococcus faecium; [9]): +++
MIC (S. aureus; [10]): +++
MIC (S. aureus; [11]): +++
Toxicity/human fibroblasts (IC50) (human fibroblasts): 12 ug/ml human fibroblasts
animal studies (ip), mortality (BDF1′ mice): 30 mg/kg (no mort)
MIC, VRE enterococcus (E. faecalis) ([1]; Table 3): No activity
MIC [1]: +++
MIC, MRSA (methicillin resistant) [2]: No activity
MIC ([2]; plate A1, MRSA patient isolate): +++^a
MIC ([2]; plate B2, MRSA patient isolate): +++
MIC ([2]; plate E5, MRSA patient isolate): +++
MIC ([2]; plate F6, MRSA patient isolate): +++
MIC ([2]; plate G7, MRSA patient isolate): +++
MIC ([2]; plate H9, MRSA patient isolate): +++
MIC [2, 12]: +++
MIC, P. aeruginosa (P. aeruginosa): No activity
MIC (P. aeruginosa; [13]): +++
MIC (P. aeruginosa; [14]): +++
MIC (P. aeruginosa; [15]): +++
MIC, Stenotrophomonas maltophilia ([3]; Table 3): No activity
MIC [3, 16]: +++
MIC [3, 17]: +++
MIC [3, 18]: +++

c1ccc2c(c1)c(NCCCCN1CCCCC1)cc1c3ccccc3c(NCCCCN3CCCCC3)cc21 [Tx-84]
IC50 [4]: 0.091 µM
inhibitory effect against Pf ([4]; in words): significant inhibitory effect; also recorded: greater than that of CQ
MIC, VRE enterococcus (E. faecalis) ([1]; Table 3): 4 to 33 mg/L
MIC, MRSA (methicillin resistant) [2]: 16 mg/L (≈ 29.8 µM)
MIC, P. aeruginosa (P. aeruginosa): No activity

CC(=O)c1cc2c3ccccc3ccc2c2ccc(NC(=O)CCC(=O)N3CCN(C)CC3)cc12 [Tx-118, N-(12′-acetyl, 2′-chrysenyl)-4-(4′N methyl-piperazinyl)-butane-1,4-dicarboxiamide]
MIC, Mycobacterium fortutium (Mycobacterium fortutium): No activity
MIC, VRE enterococcus (E. faecalis) ([1]; Table 3): No activity
MIC, MRSA (methicillin resistant) [2]: No activity
MIC, P. aeruginosa (P. aeruginosa): No activity
MIC, Stenotrophomonas maltophilia ([3]; Table 3): No activity

CN1CCN(CCCCNc2cc3c4ccccc4c(NCCCCN4CCN(C)CC4)cc3c3ccccc23)CC1.Cl [Tx-147]
MIC (E. coli ATCC 25922): +++
MIC (Enterococcus faecium; [7]): 3 mg/L
MBC (Enterococcus faecium; [7]): 6 mg/L
MIC (Enterococcus faecium; [8]): 6 mg/L
MBC (Enterococcus faecium; [8]): 12 mg/L
MIC (Enterococcus faecium; [9]): 6 mg/L
MBC (Enterococcus faecium; [9]): 12 mg/L
MIC (S. aureus; [10]): 12/12 ug/ml
MBC (S. aureus; [10]): 12/12 ug/ml
MIC (S. aureus; [11]): 12/12 ug/ml
MBC (S. aureus; plate S520, S aureus patient isolate): 12/12 ug/ml
MIC, VRSA (ATCC 700699) [6, 19]: 6 mg/L
MIC, VRSA (ATCC 700788) [6, 19]: 24 mg/L
MIC [6, 20]: 6 mg/L
MBC [6, 20]: 23 mg/L
MIC [6, 21]: 24 mg/L
MBC [6, 21]: 49 mg/L
MIC for Mycobacterium fortutium (Mycobacterium fortutium; Example 2): 0.0039 mg/L
MIC, Mycobacterium fortutium (Mycobacterium fortutium): 39 mg/L
MIC, M. avium intracellularie (M. avium intracellularie): 12 to 24 mg/L
MIC, Mycobacterium tuberculosis [5]: 3 mg/L
animal studies (ip), mortality (BDF1′ mice): 30 mg/kg (10-12% mort)
MIC for VRE [1, 22]: 0.0019 mg/L
MIC, VRE enterococcus (E. faecalis) ([1]; Table 3): 12 mg/L
MIC, VRE enterococcus (vancomycin, Penicillin & aminoglycoside rest.) ([1]; Table 3, vancomycin, Penicillin & aminoglycoside resistant): 19 mg/L
bactericidal activity for VRE ([1]; in words, Example 1): some bactericidal activity
MIC [1]: 12 mg/L
MIC for Staphylococcus aureus (MRSA) ([2]; Example 2, first well 1×10^−4 M, two fold dilutions): 0.0039 mg/L
concentration that was bactericidal, Staphylococcus aureus (MRSA) ([2]; Example 2, wells 1 and 2, hydrochloride): 0.0078 µg/mL and 0.0039 µg/mL
MIC, MRSA (methicillin resistant) [2]: 24 to 49 mg/L
bactericidal activity against Staphylococcus aureus (MRSA) ([2]; in words, Example 1): bactericidal activity
MIC ([2]; plate A1, MRSA patient isolate): 24 mg/L
MIC ([2]; plate B2, MRSA patient isolate): 48 mg/L
MIC ([2]; plate E5, MRSA patient isolate): 24 mg/L
MIC ([2]; plate F6, MRSA patient isolate): 24 mg/L
MIC ([2]; plate G7, MRSA patient isolate): 24 mg/L
MIC ([2]; plate H9, MRSA patient isolate): 48 mg/L
MIC [2, 12]: 48 mg/L
MIC, P. aeruginosa (P. aeruginosa): No activity
MIC (P. aeruginosa; [13]): +++
MIC (P. aeruginosa; [14]): +++
MIC (P. aeruginosa; [15]): +++
MIC for Stenotrophomonas maltophilia [3, 22]: 0.0078 mg/L
MIC, Stenotrophomonas maltophilia ([3]; Table 3): 98 to 785 mg/L
MIC, Stenotrophomonas maltophilia (resist. various drugs) ([3]; Table 3, strain resist. various drugs): 78 mg/L
MIC [3, 16]: 96 mg/L
MIC [3, 17]: 784 mg/L
MIC [3, 18]: 784 mg/L

Cl.c1ccc2c(c1)c(NCCCCN1CCCCC1)cc1c3ccccc3c(NCCCCN3CCCCC3)cc21 [Tx-225]
antimicrobial activity (various microorganisms; in words): activity similar to Tx-84
